# Results as given in patent US7462480B2, “Stimulation of microbial dechlorination of polychorinated biphenyls with halogenated ethenes” (University of Maryland Biotechnology Institute, priority 2002, dated 2008).
# Columns and labels:
# [1] = partially soluble in water; cited from earlier work
# [2] = tested on: DF-1; experiment: anaerobic enrichment culture of PCB dechlorinating bacterium DF-1 with tetrachloroethene; format: cell-based, bacterium double flank-dechlorinating strain DF-1
# Experimental: (§1) Culture Conditions. A sterile media was prepared composed of at least one of the following components in grams per liter (final concentration) of demineralized water: Na2CO3, 3.0; Na2HPO4, 0.6; NH4Cl, 0.5; cysteine-HCl.H2O, 0.25; Na2S.9H2O, 0.25; resazurin, 0.001. In addition, 1% (v/v) each of vitamin and trace element solutions was added. An anaerobic enrichment culture comprising either O-17 (GenBank Accession #: AF058005; Appl Environ Microbiol. 1998 September; 64(9):3359-67)or DF-1 (GenBank Accession #: AF393781; Appl Environ Microbiol. 2002 February; 68(2):807-12)capable of dechlorination of 2,3,5,6-tetrachlorobiphenyl (2,3,5,6-CB) in the absence of sediment was used in this study. Cultures were incubated at 30° C. in the dark. All gases were passed through a column of reduced copper turnings at 350° C. to remove traces of O2. Media (8 ml) were dispersed into culture tubes (16×160 mm) and sealed with Teflon®-lined butyl stoppers (The West Company, Lionville, Pa.) secured by aluminum crimp collars (Bellco Glass, Inc., Vineland, N.J.).
# (§2) Congener 2,3,5,6-tetrachlorobiphenyl (2,3,5,6-CB) was also solubilized in tetrachloroethene and added to a fresh anaerobic enrichment culture comprising either O-17 or DF-1 and was incubated under strict anaerobic conditions at 30° C. in the dark. […]
# [3] = tested on: O-17; experiment: anaerobic enrichment culture of PCB dechlorinating bacterium O-17 with tetrachloroethene; format: cell-based, bacterium ortho-dechlorinating strain O-17
# Experimental: as §1, §2
# [4] = 2,3,5,6-CB solubilized in tetrachloroethene, strict anaerobic conditions, 30° C. in the dark
# [5] = PCBs and tetrachloroethene combined, simultaneously dechlorinated
smiles,measurement,setting,value
ClC(Cl)=C(Cl)Cl [tetrachloroethene],solubility in water,[1],up to 1 mM
same,"population growth density relative to culture containing 2,3,5,6-CB alone",[2]; [4],increased population growth density
same,effect on PCB dechlorination,[2]; [5],did not inhibit or significantly delay PCB dechlorination
same,"population growth density relative to culture containing 2,3,5,6-CB alone",[3]; [4],increased population growth density
same,effect on PCB dechlorination,[3]; [5],did not inhibit or significantly delay PCB dechlorination
